Source: US9096591B2, “Tetracyclic compounds” (Medivation Technologies, Inc., priority 2007, dated 2015)
Read-outs that look alike come from different tables or passages of the source.

What was measured:
[1] = target: T1, human recombinant histamine H1 receptor (Homo sapiens, UniProt P35367); experiment: Histamine H1 radioligand binding ([3H]Pyrilamine); details: read-out: Inhibition of ligand binding, Hist. H1
T1 construct: expressed in transfected cells; host or cells: CHO cells
Outline: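 Receptor expressed in CHO cells, assayed in 50 mM Tris-HCl pH 7.4 with 2 mM MgCl2, 100 mM NaCl, 250 mM sucrose. Compounds tested at 1 μM in 1% DMSO; non-specific binding set with 1 μM pyrilamine. Filter-bound radioactivity counted; values are percent inhibition of specific binding.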

[2] = target: T2, human recombinant adrenergic α2B receptor (Homo sapiens, UniProt P18089); experiment: Adrenergic α2B radioligand binding ([3H]Rauwolscine); set-up: Inhibition of ligand binding, Adren. alpha2B: concentration or dose not given beside the values; details: percent inhibition of specific binding
T2 construct: expressed in transfected cells; host or cells: CHO-K1 cells
T2 sequence (P18089 1-450): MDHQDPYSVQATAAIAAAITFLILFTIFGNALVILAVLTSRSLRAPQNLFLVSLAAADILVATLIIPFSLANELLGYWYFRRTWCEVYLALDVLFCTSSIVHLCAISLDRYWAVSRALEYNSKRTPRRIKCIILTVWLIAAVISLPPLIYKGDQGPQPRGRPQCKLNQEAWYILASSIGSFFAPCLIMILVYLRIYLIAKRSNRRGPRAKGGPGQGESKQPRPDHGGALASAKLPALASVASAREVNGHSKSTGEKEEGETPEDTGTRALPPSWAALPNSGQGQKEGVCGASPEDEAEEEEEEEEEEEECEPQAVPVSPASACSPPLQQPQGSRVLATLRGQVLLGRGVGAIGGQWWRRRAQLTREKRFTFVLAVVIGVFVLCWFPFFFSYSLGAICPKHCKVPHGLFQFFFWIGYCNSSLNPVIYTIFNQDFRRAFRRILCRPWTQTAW
Outline: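 Membranes from CHO-K1 cells expressing the receptor, in 50 mM Tris-HCl pH 7.4 with 12.5 mM MgCl2, 1 mM EDTA, 0.2% BSA, incubated with compounds and 2.5 nM [3H]Rauwolscine for 60 minutes at 25 °C.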

[3] = target: T3, human recombinant dopamine D2L receptor (Homo sapiens, UniProt P14416); experiment: Dopamine D2L radioligand binding ([3H]Spiperone); details: percent inhibition of specific binding
T3 construct: expressed in transfected cells; host or cells: CHO cells
T3 sequence (P14416 whole entry): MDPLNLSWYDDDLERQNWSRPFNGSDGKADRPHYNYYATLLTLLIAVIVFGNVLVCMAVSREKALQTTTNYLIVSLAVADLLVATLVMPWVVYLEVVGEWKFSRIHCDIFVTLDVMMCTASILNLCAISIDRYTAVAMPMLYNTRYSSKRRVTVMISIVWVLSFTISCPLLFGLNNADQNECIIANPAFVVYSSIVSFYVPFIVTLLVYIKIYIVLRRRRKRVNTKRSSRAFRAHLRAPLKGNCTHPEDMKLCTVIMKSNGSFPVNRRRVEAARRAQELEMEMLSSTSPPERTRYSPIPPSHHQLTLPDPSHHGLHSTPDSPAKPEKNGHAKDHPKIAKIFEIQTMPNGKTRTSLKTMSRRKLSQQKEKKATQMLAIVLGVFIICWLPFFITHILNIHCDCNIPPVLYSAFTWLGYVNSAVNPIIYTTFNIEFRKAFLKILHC
Procedure: Non-specific binding was estimated in the presence of 10 μM Haloperidol. Receptor proteins were filtered and washed, the filters were then counted to determine [^3H]Spiperone specifically bound. […] Biochemical assay results are presented as the percent inhibition of specific binding in Table 6.

[4] = target: T4, human recombinant serotonin (5-Hydroxytryptamine) 5-HT6 receptor (Homo sapiens, UniProt P50406); experiment: Serotonin 5-HT6 radioligand binding ([3H]LSD); set-up: Inhibition of ligand binding, Ser. 5-HT6: concentration or dose not given beside the values; details: percent inhibition of specific binding
T4 construct: expressed in transfected cells; host or cells: human HeLa cells
T4 sequence (P50406 whole entry): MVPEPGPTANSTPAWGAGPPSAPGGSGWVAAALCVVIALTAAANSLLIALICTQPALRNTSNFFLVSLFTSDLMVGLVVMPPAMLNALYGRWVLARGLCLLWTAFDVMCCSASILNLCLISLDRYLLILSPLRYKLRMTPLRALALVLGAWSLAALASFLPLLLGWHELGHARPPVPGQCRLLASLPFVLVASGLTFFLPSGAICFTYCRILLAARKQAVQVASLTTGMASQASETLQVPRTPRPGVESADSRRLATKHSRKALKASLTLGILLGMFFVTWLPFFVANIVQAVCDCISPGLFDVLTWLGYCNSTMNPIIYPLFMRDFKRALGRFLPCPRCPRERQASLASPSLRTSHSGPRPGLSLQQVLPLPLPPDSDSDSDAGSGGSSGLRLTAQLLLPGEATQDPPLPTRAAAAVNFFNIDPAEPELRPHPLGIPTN
Excerpt: Receptor proteins were filtered and washed, the filters were then counted to determine [3H]LSD specifically bound. […] Biochemical assay results are presented as the percent inhibition of specific binding in Table 6.

[5] = target: T5, human recombinant serotonin (5-Hydroxytryptamine) 5-HT2A receptor (Homo sapiens, UniProt P28223); experiment: Serotonin 5-HT2A radioligand binding ([3H]Ketanserin); details: percent inhibition of specific binding
T5 construct: expressed in transfected cells; host or cells: CHO-K1 cells
T5 sequence (P28223 whole entry): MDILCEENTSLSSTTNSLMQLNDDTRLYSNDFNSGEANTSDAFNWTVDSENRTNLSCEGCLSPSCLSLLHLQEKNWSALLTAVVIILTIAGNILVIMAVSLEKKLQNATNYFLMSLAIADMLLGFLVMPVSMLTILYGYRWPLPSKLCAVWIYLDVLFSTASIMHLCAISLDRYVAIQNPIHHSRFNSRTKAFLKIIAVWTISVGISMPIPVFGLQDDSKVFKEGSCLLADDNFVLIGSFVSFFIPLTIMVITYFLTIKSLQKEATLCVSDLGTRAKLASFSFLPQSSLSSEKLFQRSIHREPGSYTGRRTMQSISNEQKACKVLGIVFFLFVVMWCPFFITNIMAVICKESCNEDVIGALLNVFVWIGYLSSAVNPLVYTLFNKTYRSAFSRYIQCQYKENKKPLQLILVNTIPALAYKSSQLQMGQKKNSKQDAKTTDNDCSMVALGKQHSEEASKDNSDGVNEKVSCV
Procedure: (§1) Compounds of the invention were incubated with 0.5 nM [^3H]Ketanserin for 60 minutes at 25° C. Non-specific binding was estimated in the presence of 1 μM Mianserin. Receptor proteins were filtered and washed, the filters were then counted to determine [^3H]Ketanserin specifically bound. […] Biochemical assay results are presented as the percent inhibition of specific binding in Table 6.

[6] = target: T6, human recombinant adrenergic α1D receptor (Homo sapiens, UniProt P25100); experiment: Adrenergic α1D radioligand binding ([3H]Prozosin); set-up: Inhibition of ligand binding, Adren. alpha1D: concentration or dose not given beside the values; details: percent inhibition of specific binding
T6 construct: expressed in transfected cells; host or cells: HEK-293 cells
T6 sequence (P25100 1-572): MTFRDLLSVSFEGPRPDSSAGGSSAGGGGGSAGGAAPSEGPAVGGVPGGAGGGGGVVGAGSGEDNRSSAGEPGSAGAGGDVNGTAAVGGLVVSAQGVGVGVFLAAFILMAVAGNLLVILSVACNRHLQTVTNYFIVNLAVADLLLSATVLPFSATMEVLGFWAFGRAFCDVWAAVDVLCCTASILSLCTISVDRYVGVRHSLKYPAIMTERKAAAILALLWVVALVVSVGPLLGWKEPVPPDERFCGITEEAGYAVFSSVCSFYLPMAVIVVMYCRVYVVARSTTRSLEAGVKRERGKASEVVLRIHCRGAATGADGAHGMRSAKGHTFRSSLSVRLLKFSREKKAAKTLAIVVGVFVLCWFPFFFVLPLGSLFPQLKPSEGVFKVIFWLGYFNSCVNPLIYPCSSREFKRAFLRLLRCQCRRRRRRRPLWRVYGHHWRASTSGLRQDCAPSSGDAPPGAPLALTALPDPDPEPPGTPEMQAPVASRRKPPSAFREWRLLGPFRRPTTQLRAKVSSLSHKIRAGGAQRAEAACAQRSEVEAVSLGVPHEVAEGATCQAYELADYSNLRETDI
Procedure: as §1, with “of” for “of the”, “0.6” for “0.5”, “[^3H]Prozosin” for “[^3H]Ketanserin”, “10” for “1”, “phentolamine.” for “Mianserin.”

[7] = percent inhibition of specific binding, screened at 1 μM

T1 sequence (P35367 whole entry): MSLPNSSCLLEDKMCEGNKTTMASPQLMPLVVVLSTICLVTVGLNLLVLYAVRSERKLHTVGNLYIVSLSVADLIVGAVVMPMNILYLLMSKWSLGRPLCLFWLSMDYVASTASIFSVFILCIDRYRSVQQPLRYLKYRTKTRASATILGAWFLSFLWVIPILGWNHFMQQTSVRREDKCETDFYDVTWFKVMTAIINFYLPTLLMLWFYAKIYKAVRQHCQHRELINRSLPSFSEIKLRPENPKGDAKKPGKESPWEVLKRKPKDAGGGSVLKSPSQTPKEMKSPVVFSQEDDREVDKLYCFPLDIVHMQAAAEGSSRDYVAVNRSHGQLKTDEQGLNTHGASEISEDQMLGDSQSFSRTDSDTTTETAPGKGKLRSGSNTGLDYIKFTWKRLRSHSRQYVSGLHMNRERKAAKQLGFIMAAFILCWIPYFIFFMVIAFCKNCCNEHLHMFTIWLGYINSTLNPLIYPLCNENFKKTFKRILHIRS

SMILES	inhibition at 1 µM [1]	Inhibition of ligand binding, Adren. alpha2B [2]	Inhibition of ligand binding, Dop. D2L [3]	Inhibition of ligand binding, Ser. 5-HT6 [4]	Inhibition of ligand binding, Ser. 5-HT2A [5]	Inhibition of ligand binding, Adren. alpha1D [6]	inhibition at 1 µM [1, 7]
Cc1ccc(CCn2c3c(c4cc(Cl)ccc42)CN(C)CC3)cn1 [Compound 225, 8-chloro-2,3,4,5-tetrahydro-2-methyl-5-(2-(6-methylpyridin-3-yl)ethyl)-1H-pyrido[4,3-b]indole]	101%	107%	32%	81%	92%	86%	
Cc1ccc(CCn2c3c(c4cc(CO)ccc42)CN(C)CC3)cn1 [Compound 263]		105%	−4%	31%	24%	39%	95%
CN1CCc2c(c3cc(Cl)cc(F)c3n2CCc2ccc(C(F)(F)F)nc2)C1 [Compound 338, 8-chloro-6-fluoro-5-(2-(6-(trifluoromethyl)pyridin-3-yl)ethyl)-2,3,4,5-tetrahydro-2-methyl-1H-pyrido[4,3-b]indole]		104%	22%	66%	94%	83%	96%
CN1CCc2c(c3cc(OC(F)(F)F)ccc3n2CCc2ccc(C(F)(F)F)nc2)C1 [Compound 341, 5-(2-(6-(trifluoromethyl)pyridin-3-yl)ethyl)-2,3,4,5-tetrahydro-2-methyl-8-(trifluoromethoxy)-1H-pyrido[4,3-b]indole]		−1%	8%	17%	39%	−3%	28%
CC(C)c1ccc2c(c1)c1c(n2CCc2ccc(C(F)(F)F)nc2)CCN(C)C1 [Compound 342, 8-Isopropyl-2-methyl-5-[2-(6-trifluoromethyl-pyridin-3-yl)-ethyl]-2,3,4,5-tetrahydro-1H-pyrido[4,3-b]indole]		108%	29%	72%	74%	91%	80%
CN1CCc2c(c3cc(Cl)c(F)cc3n2CCc2ccc(C(F)(F)F)nc2)C1 [Compound 343]		117%	−7%	57%	89%	61%	98%
CN1CCc2c(c3cc(Cl)ccc3n2CCn2cccc2)C1 [Compound 349, 8-Chloro-2-methyl-5-(2-pyrrol-1-yl-ethyl)-2,3,4,5-tetrahydro-1H-pyrido[4,3-b]indole]		111%	86%	101%	97%	100%	111%
OC1CCC(N2CCc3c(c4cc(Cl)ccc4n3CCc3ccc(C(F)(F)F)nc3)C2)C1 (stereo not drawn) [Compound 351, 3-(8-chloro-5-(2-(6-(trifluoromethyl)pyridin-3-yl)ethyl)-3,4-dihydro-1H-pyrido[4,3-b]indol-2(5H)-yl)cyclopentanol]		43%	7%	−4%	1%	61%	74%
Cc1ccc2c(n1)c1c(n2CCc2ccc(C(F)(F)F)nc2)CCN(C)C1 [Compound 353, 9-aza-2,8-dimethyl-5-(2-(6-(trifluoromethyl)pyridin-3-yl)ethyl)-2,3,4,5-tetrahydro-1H-pyrido[4,3-b]indole]		11%	5%	0%	−1%	11%	10%
CCc1ccc2c(c1)c1c(n2CCc2ccc(C)nc2)CCN(C)C1 [Compound 357, 8-Ethyl-2-methyl-5-[2-(6-methyl-pyridin-3-yl)-ethyl]-2,3,4,5-tetrahydro-1H-pyrido[4,3-b]indole]		106%	47%	85%	69%	89%	101%
CCc1ccc2c(c1)c1c(n2CCc2ccc(C(F)(F)F)nc2)CCN(C)C1 [Compound 358, 8-Ethyl-2-methyl-5-[2-(6-trifluoromethyl-pyridin-3-yl)-ethyl]-2,3,4,5-tetrahydro-1H-pyrido[4,3-b]indole]		109%	38%	65%	95%	95%	94%
CCc1ccc(CCn2c3c(c4cc(C)ccc42)CN(C)CC3)cn1 [Compound 359, 5-[2-(6-Ethyl-pyridin-3-yl)-ethyl]-2,8-dimethyl-2,3,4,5-tetrahydro-1H-pyrido[4,3-b]indole]		90%	51%	95%	96%	95%	99%
Cc1ccc2c(c1)c1c(n2CCc2ccc(C(C)C)nc2)CCN(C)C1 [Compound 360, 5-[2-(6-Isopropyl-pyridin-3-yl)-ethyl]-2,8-dimethyl-2,3,4,5-tetrahydro-1H-pyrido[4,3-b]indole]		115%	37%	91%	97%	96%	101%
Cc1ncc(CCn2c3c(c4cc(Cl)ccc42)CN(C)CC3)cn1 [Compound 361, 8-Chloro-2-methyl-5-[2-(2-methyl-pyrimidin-5-yl)-ethyl]-2,3,4,5-tetrahydro-1H-pyrido[4,3-b]indole]		94%	31%	76%	60%	87%	106%
